Test results as given in US9783537B2, “3-(4-ethylnylphenyl) pyridopyrimidinone compounds and process for preparation thereof useful as potential anticancer agents” (Council of Scientific & Industrial Research, priority 2013, dated 2017).

Row | SMILES | melting point
1 | C#Cc1ccc(-n2c(/C=C/c3ccc(F)cc3)nc3ncccc3c2=O)cc1 [4a, (E)-3-(4-Ethynylphenyl)-2-(4-fluorostyryl)pyrido[2,3-d]pyrimidin-4(3H)-one] | 123 to 124 °C
2 | C#Cc1ccc(-n2c(/C=C/c3cccc(OC(F)(F)F)c3)nc3ncccc3c2=O)cc1 [4d, (E)-3-(4-Ethynylphenyl)-2-(3-(trifluoromethoxy)styryl)pyrido[2,3-d]pyrimidin-4(3H)-one] | 128 to 129 °C
3 | C#Cc1ccc(-n2c(/C=C/c3ccc(F)c(F)c3)nc3ncccc3c2=O)cc1 [4f, (E)-2-(3,4-Difluorostyryl)-3-(4-ethynylphenyl)pyrido[2,3-d]pyrimidin-4(3H)-one] | 123 to 124 °C
4 | C#Cc1ccc(-n2c(/C=C/c3ccc(OC)c(F)c3)nc3ncccc3c2=O)cc1 [4h, (E)-3-(4-Ethynylphenyl)-2-(3-fluoro-4-methoxystyryl)pyrido[2,3-d]pyrimidin-4(3H)-one] | 124 to 125 °C
5 | C#Cc1ccc(-n2c(/C=C/c3ccc(O)c(OC)c3)nc3ncccc3c2=O)cc1 [4k, (E)-3-(4-Ethynylphenyl)-2-(4-hydroxy-3-methoxystyryl)pyrido[2,3-d]pyrimidin-4(3H)-one] | 123 to 124 °C
6 | C#Cc1ccc(-n2c(/C=C/c3cc(OC)cc(OC)c3)nc3ncccc3c2=O)cc1 [4m, (E)-2-(3,5-Dimethoxystyryl)-3-(4-ethynylphenyl)pyrido[2,3-d]pyrimidin-4(3H)-one] | 123 to 124 °C
7 | C#Cc1ccc(-n2c(/C=C/c3cc(OC)ccc3OC)nc3ncccc3c2=O)cc1 [4n, (E)-2-(2,5-Dimethoxystyryl)-3-(4-ethynylphenyl)pyrido[2,3-d]pyrimidin-4(3H)-one] | 127 to 128 °C

Other lines, results leading:

Row | melting point | SMILES
8 | 125 to 126 °C | C#Cc1ccc(-n2c(/C=C/c3cccc4c3OCO4)nc3ncccc3c2=O)cc1 [4o, (E)-2-(2-(benzo[d][1,3]dioxol-4-yl)vinyl)-3-(4-ethynylphenyl)pyrido[2,3-d]pyrimidin-4(3H)-one]
9 | 124 to 125 °C | C#Cc1ccc(-n2c(/C=C/c3c(OC)cc(OC)cc3OC)nc3ncccc3c2=O)cc1 [4r, (E)-3-(4-Ethynylphenyl)-2-(2,4,6-trimethoxystyryl)pyrido[2,3-d]pyrimidin-4(3H)-one]
10 | 123 to 124 °C | C#Cc1ccc(-n2c(/C=C/c3ccc4[nH]ccc4c3)nc3ncccc3c2=O)cc1 [4u, (E)-2-(2-(1H-Indol-5-yl)vinyl)-3-(4-ethynylphenyl)pyrido[2,3-d]pyrimidin-4(3H)-one]
11 | 114 to 115 °C | C#Cc1ccc(-n2c(/C=C/c3c[nH]c4ccc(OC)cc34)nc3ncccc3c2=O)cc1 [4v, (E)-3-(4-ethynylphenyl)-2-(2-(5-methoxy-1H-indol-3-yl)vinyl)pyrido[2,3-d]pyrimidin-4(3H)-one]
